In patent US6620828B2, “Thiazole compounds and pharmaceutical compositions for inhibiting protein kinases and methods for their use” (Agouron Pharmaceuticals, Inc., priority 1999, dated 2003):

What was measured:
Format in all cases: biochemical
[1] = target: T1, phosphorylated VEGF-R2Δ50 (FLVK-P) (Homo sapiens, UniProt P35968, DEL940-989/E990V); test: VEGF-R2 coupled spectrophotometric (FLVK-P) assay; conditions: read-out: VEGF % inhibition at 20 μM, 20 μM; combinatorial library compounds
T1 construct: VEGF-R2Δ50 contains residues 806-939 and 990-1171; made in house; host or cells: baculovirus/insect cells
Outline: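 Baculovirus-expressed human VEGF-R2Δ50 (residues 806-939/990-1171, E990V) was autophosphorylated with 3 mM ATP, 40 mM MgCl2 for 2 h at 4° C. ADP formation was coupled via PK/LDH to NADH oxidation, read at 340 nm, with 5.1 mM poly(E4Y1), 1 mM ATP, 25 mM MgCl2, Hepes pH 7.5. Ki came from activity across compound concentrations.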

FL-CHK1 = target: T2, FL-CHK1 (Homo sapiens, UniProt O14757); test: CHK1 assay; conditions: 20 μM; combinatorial library compounds
T2 construct: C-terminally His-tagged full-length human CHK1 (FL-CHK1); 6xHis (C); made in house; host or cells: baculovirus/insect cells
T2 sequence (O14757 1-476): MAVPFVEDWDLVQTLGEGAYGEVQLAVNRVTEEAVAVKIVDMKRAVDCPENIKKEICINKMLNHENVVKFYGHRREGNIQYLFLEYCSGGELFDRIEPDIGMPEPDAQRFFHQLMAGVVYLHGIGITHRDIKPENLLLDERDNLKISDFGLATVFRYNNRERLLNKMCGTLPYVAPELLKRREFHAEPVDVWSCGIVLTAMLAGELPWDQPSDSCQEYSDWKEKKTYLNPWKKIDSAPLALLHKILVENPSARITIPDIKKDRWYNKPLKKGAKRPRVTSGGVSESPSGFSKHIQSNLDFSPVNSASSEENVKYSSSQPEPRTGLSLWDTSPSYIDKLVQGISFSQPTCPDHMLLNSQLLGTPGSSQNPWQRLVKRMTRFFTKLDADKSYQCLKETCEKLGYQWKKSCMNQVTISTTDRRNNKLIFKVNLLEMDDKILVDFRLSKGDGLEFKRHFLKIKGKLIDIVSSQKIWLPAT
Outline: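 Full-length human CHK1 with C-terminal 6×His tag, made in baculovirus/insect cells, 10 nM, phosphorylating 0.125 mM Syntide-2 with 0.15 mM ATP in 50 mM Tris pH 7.5, 25 mM MgCl2, 400 mM NaCl. PK/LDH-coupled NADH oxidation read at 340 nm. Ki from initial rates over varied compound concentrations.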

CDK2/Cyclin A complex = CDK2/Cyclin A complex (Homo sapiens, UniProt P24941); test: CDK2/Cyclin A assay; conditions: 1.0 μM; combinatorial library compounds
Outline: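 Radiometric assay: 150 nM CDK2/cyclin A (insect-cell CDK2, truncated cyclin A) phosphorylates His-tagged Rb fragment (residues 386-928) with 25 μM ATP plus [32P]ATP, pH 7.4 HEPES, 2% DMSO, 30 °C for 20 min. Filter-captured product counted by phosphorimager; apparent Ki from competitive or tight-binding inhibition fits.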

CDK4/Cyclin D3 complex = target: T3, CDK4/Cyclin D3 complex (Homo sapiens, UniProt P11802); test: CDK4/Cyclin D assay; conditions: 1.0 μM; combinatorial library compounds
T3 construct: made in house; host or cells: insect cells co-infected with baculovirus vectors
Outline: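 Insect-cell-expressed CDK4/cyclin D3 (50 nM) phosphorylating His-tagged Rb fragment (residues 386-928) with 25 μM [^32P]ATP in HEPES pH 7.4, MgCl2, 2% DMSO; 20 min at 30 °C, EDTA stop. Filter-captured 32P by phosphorimager; apparent Ki from competitive or tight-binding inhibition fits.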

T1 sequence (P35968 with tags, fused parts or gaps DEL940-989/E990V limits assumed): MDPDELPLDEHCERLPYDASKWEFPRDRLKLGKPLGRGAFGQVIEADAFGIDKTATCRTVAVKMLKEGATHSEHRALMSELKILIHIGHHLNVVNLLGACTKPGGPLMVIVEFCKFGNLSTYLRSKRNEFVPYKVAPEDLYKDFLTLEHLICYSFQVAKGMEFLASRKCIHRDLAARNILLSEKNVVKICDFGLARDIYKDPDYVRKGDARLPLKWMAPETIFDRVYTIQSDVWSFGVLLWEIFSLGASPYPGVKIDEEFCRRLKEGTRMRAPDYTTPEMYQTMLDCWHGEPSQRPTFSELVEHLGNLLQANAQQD
T3 sequence (P11802 whole entry): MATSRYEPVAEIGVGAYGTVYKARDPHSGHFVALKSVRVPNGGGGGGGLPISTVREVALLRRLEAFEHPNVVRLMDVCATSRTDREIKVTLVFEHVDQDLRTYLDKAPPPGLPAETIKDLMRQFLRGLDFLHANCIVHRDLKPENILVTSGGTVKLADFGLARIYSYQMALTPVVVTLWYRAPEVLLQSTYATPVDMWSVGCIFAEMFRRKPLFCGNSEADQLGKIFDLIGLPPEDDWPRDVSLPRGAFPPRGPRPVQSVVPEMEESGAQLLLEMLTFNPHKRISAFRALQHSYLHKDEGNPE
T3 sequence (P30281 whole entry partner): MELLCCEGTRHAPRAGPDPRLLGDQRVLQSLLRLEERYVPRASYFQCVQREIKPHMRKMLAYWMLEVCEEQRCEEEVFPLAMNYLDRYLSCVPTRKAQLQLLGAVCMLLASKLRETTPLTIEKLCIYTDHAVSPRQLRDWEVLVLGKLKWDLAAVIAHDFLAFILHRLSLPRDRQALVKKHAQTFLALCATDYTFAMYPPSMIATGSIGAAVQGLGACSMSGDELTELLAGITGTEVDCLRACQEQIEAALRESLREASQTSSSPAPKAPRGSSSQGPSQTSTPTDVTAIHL

Row | SMILES | inhibition at 20 µM [1] [%] | inhibition at 20 µM (FL-CHK1) [%] | inhibition at 1 µM (CDK2/Cyclin A complex) [%] | inhibition at 1 µM (CDK4/Cyclin D3 complex) [%]
1 | Cc1cc(-c2csc(-c3sc(Nc4ccc(C(C)C)cc4)nc3N)n2)c(C)s1 | 50 | 27.4 | 17.5 | 76.5
2 | CC(C)c1ccc(Nc2nc(N)c(-c3nc(-c4ccc5oc6ccccc6c5c4)cs3)s2)cc1 | 39 | 18.9 | -4.3 | 75.5
3 | CC(C)c1ccc(Nc2nc(N)c(-c3nc(-c4ccc5c(c4)CCC(=O)N5)cs3)s2)cc1 | 21 | 20.9 | 29.1 | 59.5
4 | CC(C)c1ccc(Nc2nc(N)c(-c3nc(-c4ccccc4OC(=O)c4ccccc4)cs3)s2)cc1 | 7 | -4.2 | 4.8 | 56.1
5 | CCc1cc2c(cc1-c1csc(-c3sc(Nc4ccc(C(C)C)cc4)nc3N)n1)C(C)(C)CCC2(C)C | 13 | 6.5 | 6.2 | 61.4
6 | COc1ccc2nc(-c3ccccc3)c(-c3csc(-c4sc(Nc5ccc(C(C)C)cc5)nc4N)n3)cc2c1 | 15 | 14.1 | 26 | 85.1
7 | CC(C)c1ccc(Nc2nc(N)c(-c3nc(-c4cc(C(C)(C)C)c(O)c(C(C)(C)C)c4)cs3)s2)cc1 | -6 | 7.9 | 20.9 | 46.8
8 | CN(C)c1ccc(Nc2nc(N)c(-c3nc(-c4cc(Br)c(Cl)s4)cs3)s2)cc1 | 18 | 22.8 | 17.6 | 69.1
9 | CN(C)c1ccc(Nc2nc(N)c(-c3nc(-c4ccc(-c5ccc(Cl)cc5Cl)o4)cs3)s2)cc1 | 5 | -7.6 | 17.7 | 35.6
10 | Cc1ccc(-c2csc(-c3sc(Nc4ccc(N(C)C)cc4)nc3N)n2)cc1 | 16 | 15.2 | 17.7 | 61.6
11 | CN(C)c1ccc(Nc2nc(N)c(-c3nc(-c4ccc(Cl)cc4)cs3)s2)cc1 | 10 | 2.5 | 11.2 | 36.5
12 | COc1ccc(OC)c(-c2csc(-c3sc(Nc4ccc(N(C)C)cc4)nc3N)n2)c1 | 13 | 14.1 | 15.6 | 68.7
13 | COc1cccc(-c2csc(-c3sc(Nc4ccc(N(C)C)cc4)nc3N)n2)c1 | 10 | 7.8 | 16.3 | -20.3
14 | CCOC(=O)c1ccccc1-c1csc(-c2sc(Nc3ccc(N(C)C)cc3)nc2N)n1 | 25 | 38.5 | 19.8 | 45.9
15 | Cc1c(C)c(C)c(-c2csc(-c3sc(Nc4ccc(N(C)C)cc4)nc3N)n2)c(C)c1C | 33 | 37 | 33.9 | 62.7
16 | Cc1c(F)cc(-c2csc(-c3sc(Nc4ccc(N(C)C)cc4)nc3N)n2)cc1Cl | 9 | 27 | 8.2 | 76.5
17 | CN(C)c1ccc(Nc2nc(N)c(-c3nc(-c4cc(-c5ccc(Cl)c(Cl)c5)no4)cs3)s2)cc1 | 1 | -2.8 | 12.6 | -17.5
18 | CCCCCc1ccc(-c2csc(-c3sc(Nc4ccc(N(C)C)cc4)nc3N)n2)cc1 | -8 | 9.5 | -6 | 36.2
19 | CN(C)c1ccc(Nc2nc(N)c(-c3nc(-c4c(Cl)cc(C(F)(F)F)cc4Cl)cs3)s2)cc1 | 26 | 37.5 | 29.1 | 82.6
20 | CN(C)c1ccc(Nc2nc(N)c(-c3nc(-c4ccc(F)cc4F)cs3)s2)cc1 | 34 | 25.2 | 20.3 | 64.3
21 | CN(C)c1ccc(Nc2nc(N)c(-c3nc(-c4csc5ccccc45)cs3)s2)cc1 | 22 | 12.6 | 23.5 | 57.7
22 | CN(C)c1ccc(Nc2nc(N)c(-c3nc(-c4cc5cc(Cl)ccc5o4)cs3)s2)cc1 | -3 | 7.6 | 16.9 | 29.6
23 | CN(C)c1ccc(Nc2nc(N)c(-c3nc(-c4cccc(Br)c4)cs3)s2)cc1 | 17 | 14.2 | 29 | 30.1

Continued, values first:

Row | inhibition at 20 µM [1] [%] | inhibition at 20 µM (FL-CHK1) [%] | inhibition at 1 µM (CDK2/Cyclin A complex) [%] | inhibition at 1 µM (CDK4/Cyclin D3 complex) [%] | SMILES
24 | -2 | 10.7 | 17.2 | 51.2 | CC(C)c1ccc(Nc2nc(N)c(-c3nc(-c4ccc5ccccc5c4)cs3)s2)cc1
25 | 51 | 38.9 | 31.8 | 72.8 | COc1cc(OC)c(-c2csc(-c3sc(Nc4ccc(C(C)C)cc4)nc3N)n2)c(O)c1Cl
26 | 19 | 11.6 | 5.2 | 74.4 | CC(C)c1ccc(Nc2nc(N)c(-c3nc(-c4ccc5c(c4)C(C)(C)CCC5(C)C)cs3)s2)cc1
27 | -4 | 3.7 | 8.7 | 48.3 | CC(C)c1ccc(Nc2nc(N)c(-c3nc(-c4ccc(C(F)(F)F)cc4)cs3)s2)cc1
28 | 5 | -4.7 | 4 | 2.4 | Cc1c(-c2csc(-c3sc(Nc4ccc(C(C)C)cc4)nc3N)n2)sc2ccccc12
29 | -2 | 16 | 4.1 | 59.8 | CN(C)c1ccc(Nc2nc(N)c(-c3nc(-c4ccc(Cl)c([N+](=O)[O-])c4)cs3)s2)cc1
30 | 0 | 14.8 | -6.4 | 8.7 | COc1ccccc1-c1csc(-c2sc(Nc3ccc(N(C)C)cc3)nc2N)n1
31 | 1 | 3.1 | 6.7 | 35.4 | COc1ccc(-c2csc(-c3sc(Nc4ccc(N(C)C)cc4)nc3N)n2)c(OC)c1
32 | 5 | 0.8 | 24 | 29.6 | CN(C)c1ccc(Nc2nc(N)c(-c3nc(-c4cc(-c5ccccc5)no4)cs3)s2)cc1
33 | 24 | -4.6 | 27.8 | 48.5 | CC(=O)Oc1ccccc1-c1csc(-c2sc(Nc3ccc(N(C)C)cc3)nc2N)n1
34 | 16 | 17.4 | 14.6 | 57.8 | CCN(CC)c1ccc(-c2csc(-c3sc(Nc4ccc(N(C)C)cc4)nc3N)n2)cc1
35 | 3 | 5.2 | 36.7 | 45.2 | CN(C)c1ccc(Nc2nc(N)c(-c3nc(-c4cc(C(=O)C(Cl)(Cl)Cl)n(C)c4)cs3)s2)cc1
